# Experimental data published in patent publication US9655965B2, “Radiosensitizer compounds for use in combination with radiation” (priority 2013, dated 2017).
# Entries after “also recorded” stand apart in the source; their conditions may differ.
# Tests used:
# [1] = test system: human normal cells (GM05757); assay: In vitro toxicity in human normal cells, 72-hr treatment, MTT assay; assay type: cell-based; details: GM05757, 72-hr treatment, without ionizing radiation, 0-50 μM cisplatin, 0-200 μM compounds
# Excerpt: (§1) Dibromo-diamino-benzene (Dibromo-phenylenediamine, Compound B) was obtained from TCI-America. Diiodo-diaminobenzene (Compound C) were synthesized, purified and crystallized in our laboratory, and the structures and purity were examined by NMR and mass spectrometry. MEM and fetal bovine serum (FBS), penicillin G and streptomycin were obtained from Hyclone Laboratories (UT, USA). Stock solution of cisplatin was freshly prepared in ultrapure water or saline, and stock solutions of Compounds A, B, C, D were prepared in pure ethanol, where the final concentration of ethanol was ≦1% when treated to cells.
# A human skin diploid fibroblast (GM05757 cell line) was obtained from the Coriell Cell Repository directly. Fetal bovine serum (FBS) was obtained from Hyclone Laboratories (UT, USA). The GM05757 normal cells were cultivated with MEM (Hyclone) supplemented with 10% FBS, 100 units/mL penicillin G and 100 μg/mL streptomycin (Hyclone). The cells were maintained at 37° C. in a humidified atmosphere containing 5% CO2.
# (§2) The radiosensitizing effects of RSCs on cell viability were determined by the 3-[4,5-dimethylthiazol-2-yl]-2,5-diphenyl tetrazoliumbromide (MTT) assay. Cells were cultured in 96-well plates (5×10^3 cells/well) for 24 h. The culture medium was replaced by fresh culture medium and incubated for 72 h with varying drug concentrations. The MTT assay of cell viability was then conducted. Briefly, 100 μl new medium without phenol red containing 1.2 mM MTT (sigma) (i.e., adding 10 μl 12 mM MTT stock solution in PBS) were added to each well and incubated for 4 h. The medium was then removed, and the formazan crystals solubilized by 100 μL/well DMSO (or alternatively by 100 μl/well SDS and incubated for another 4 h). The surviving fraction was determined by measuring the absorbance at 540 nm (570 nm for SDS solubilization) using a Multiskan Spectrum UV/Vis microplate reader (Thermo Scientific), which is directly proportional to the number of viable cells.
# [2] = test system: cisplatin-resistant human lung cancer (HTB-161) cells; assay: In vitro radiosensitizing effect, 18-day clonogenic assay; assay type: cell-based; details: HTB-161, 12-hr treatment, 0-10 Gy 225 keV X-ray
# Excerpt: as §1, with “TCI—America.” for “TCI-America.”
# A human skin diploid fibroblast (GM05757 cell line) was obtained from the Coriell Cell Repository directly, while the human cervical cancer cell line (HeLa, ATCC#: CCL-2; or ME-180), human ovarian cancer cell line (NIH:OVCAR-3, ATCC#: HTB-161) and human lung cancer cell line (A549, ATCC#: CCL-185™), together with RPMI 1640, F-12K, McCoy's 5 A and L-15 culture media, were obtained from the American Type Culture Collection (ATCC) directly. Fetal bovine serum (FBS) was obtained from Hyclone Laboratories (UT, USA). The GM05757 normal cells and HeLa cells were cultivated with MEM (Hyclone) supplemented with 10% FBS, 100 units/mL penicillin G and 100 μg/mL streptomycin (Hyclone). […]
# [3] = In vivo pharmacokinetics of Compound B in SCID mice
# Excerpt: Blood samples were collected from the saphenous vein of mice at various time points after IP injection of the compound into the mice and then analyzed using HPLC-Mass Spectrometry.
# [4] = test system: various human cancer cells; assay: In vitro radiosensitizing effects in various human cancer cells (FIG. 14-21); assay type: cell-based; details: 12 hr treatment, then various doses of 225 keV X-ray
# Excerpt: as §1, with “TCI—America.” for “TCI-America.”
# A human skin diploid fibroblast (GM05757 cell line) was obtained from the Coriell Cell Repository directly, while the human cervical cancer cell line (HeLa, ATCC#: CCL-2; or ME-180), human ovarian cancer cell line (NIH:OVCAR-3, ATCC#: HTB-161) and human lung cancer cell line (A549, ATCC#: CCL-185™), together with RPMI 1640, F-12K, McCoy's 5 A and L-15 culture media, were obtained from the American Type Culture Collection (ATCC) directly. Fetal bovine serum (FBS) was obtained from Hyclone Laboratories (UT, USA). The GM05757 normal cells and HeLa cells were cultivated with MEM (Hyclone) supplemented with 10% FBS, 100 units/mL penicillin G and 100 μg/mL streptomycin (Hyclone). The complete growth media for ME-180, NIH:OVCAR-3, A549 and MDA-MB-231 cells were the ATCC-formulated McCoy's 5 A Medium supplemented with 10% FBS, RPMI 1640 medium with 20%, F-12K medium with 10% FBS, and L-15 Medium (Leibovitz) with 10% FBS, respectively. The cells were maintained at 37° C. in a humidified atmosphere containing 5% CO2.
# as §2, with “12” for “72”, “concentrations. The cells were then irradiated by 225 kV X-ray (PRECISION X-RAD IR 225) at a dose rate of 2 Gy/min with various X-ray doses. After irradiation, the cells were incubated for 6 days.” for “concentrations.”
smiles,measurement,setting,value
"Nc1cc(Br)c(Br)cc1N [Compound B, 4,5-dibromo-1,2-phenylenediamine]",toxicity toward human normal cells,[1],essentially no toxicity; also recorded: little toxicity up to 200 μM
same,enhancement of radiosensitivity of cisplatin-resistant cancer cells to X-ray,[2],significant enhancement in the radiosensitivity
same,detection of compound in blood/plasma,[3]; after IP injection,significant levels; also recorded: detected in the plasma
same,elimination from the body,[3]; after IP injection,well expelled from the body within a few hours
same,time of highest concentration after i.p. injection,"[3]; plasma/blood, IP 0-7 mg/kg, HPLC-Mass Spectrometry",about 20 minutes
same,time at which concentration dropped to nearly zero,"[3]; plasma/blood, after i.p. injection",about 3 hr
same,killing of cancer cells in combination with radiation,[4],enhanced the killing of cancer cells in a radiation dose dependent manner and in synergy with radiation; also recorded: enhances the effectiveness of ionizing radiation to kill tumor cells
